In US20150164762A1, “USE OF ETHANOLAMINE PHOSPHATE” (priority 2012, published 2015):

Test system: BEAS-2B
Experiment: Comprehensive gene expression analysis with Whole Human Genome DNA microarray after EP treatment
Format: cell-based
Description: Cells of the established normal human airway epithelial cell line BEAS-2B were used in the experiment. These cells were expansively cultured in 10% FBS RPMI-1640, and seeded at a density of 1×10^5/cm^2 on a 24-well plate. After 24 hours 0.1% FBS RPMI-1640 was substituted, and EP was administered to a final concentration of 0 or 1 mM (n=4). After 24 hours, the cells were used as the DNA microarray samples. RNA was extracted using a QIAGEN RNeasy Mini Kit. The DNA microarray test was performed using a Whole Human Genome DNA microarray 4×44K (Agilent), and the necessary labeling reagents and the like for the DNA microarray test were all from Agilent. The DNA microarray test data were analyzed statistically with GeneSpring (Agilent) dedicated analysis software, and gene function analysis (Gene Ontology (GO) analysis) was performed based on differential expression. The purpose of the GO analysis is to determine stochastically the degree to which gene sets with statistically significant differential expression correspond to known functional classification gene sets. […] The p-value is calculated according to the following formula.

[1] = probe A_23_P149529, 1 mM EP, 24 h
[2] = probe A_23_P151294, NM_000619, EP vs control
[3] = probe A_23_P151294, 1 mM EP, 24 h
[4] = probe A_23_P151649, NM_080649, EP vs control
[5] = probe A_23_P156310, 1 mM EP, 24 h
[6] = probe A_23_P159210, 1 mM EP, 24 h
[7] = probe A_23_P160025, 1 mM EP, 24 h
[8] = probe A_23_P163787, 1 mM EP, 24 h
[9] = probe A_23_P167096, 1 mM EP, 24 h
[10] = probe A_23_P167585, NM_005260, EP vs control
[11] = probe A_23_P168882, 1 mM EP, 24 h
[12] = probe A_23_P168909, 1 mM EP, 24 h
[13] = probe A_23_P169030, 1 mM EP, 24 h
[14] = probe A_23_P169738, 1 mM EP, 24 h
[15] = probe A_23_P201808, 1 mM EP, 24 h
[16] = probe A_23_P202978, 1 mM EP, 24 h
[17] = probe A_23_P206077, 1 mM EP, 24 h
[18] = probe A_23_P206396, 1 mM EP, 24 h
[19] = probe A_23_P206661, NM_000903, EP vs control
[20] = probe A_23_P207003, 1 mM EP, 24 h
[21] = probe A_23_P207999, 1 mM EP, 24 h
[22] = probe A_23_P208706, 1 mM EP, 24 h
[23] = probe A_23_P209625, NM_000104, EP vs control
[24] = probe A_23_P211762, 1 mM EP, 24 h
[25] = probe A_23_P211957, 1 mM EP, 24 h
[26] = probe A_23_P213706, NM_000589, EP vs control
[27] = probe A_23_P213745, NM_004887, EP vs control
[28] = probe A_23_P214950, 1 mM EP, 24 h
[29] = probe A_23_P217866, 1 mM EP, 24 h
[30] = probe A_23_P250554, 1 mM EP, 24 h
[31] = probe A_23_P252817, 1 mM EP, 24 h
[32] = probe A_23_P253932, 1 mM EP, 24 h
[33] = probe A_23_P255653, 1 mM EP, 24 h
[34] = probe A_23_P258194, 1 mM EP, 24 h
[35] = probe A_23_P258310, NM_144651, EP vs control
[36] = probe A_23_P259071, NM_001657, EP vs control
[37] = probe A_23_P303210, 1 mM EP, 24 h

`NCCOP(=O)(O)O` [EP, Ethanolamine phosphate] was tested, and the “TACSTD2 expression R*: Ratio to control” value [1] was 1.507 times, the “TACSTD2 expression log2 [ratio]” value [1] was 0.591 and the “IFNG gene expression, R* ratio to control” value [2] was 0.611 times. The “IFNG gene expression, log2 [ratio]” value [2] was −0.710, the “IFNG expression R*: Ratio to control” value [3] was 0.611 times and the “IFNG expression log2 [ratio]” value [3] was −0.710. The “APEX1 gene expression, R* ratio to control” value [4] was 1.455 times, the “APEX1 gene expression, log2 [ratio]” value [4] was 0.541 and the “SKP2 expression R*: Ratio to control” value [5] was 1.531 times. The “SKP2 expression log2 [ratio]” value [5] was 0.615, the “CDKN1A expression R*: Ratio to control” value [6] was 0.439 times and the “CDKN1A expression log2 [ratio]” value [6] was −1.187. For the same molecule, the “IFI16 expression R*: Ratio to control” value [7] was 0.629 times, the “IFI16 expression log2 [ratio]” value [7] was −0.669 and the “MMP2 expression R*: Ratio to control” value [8] was 1.578 times. The “MMP2 expression log2 [ratio]” value [8] was 0.658, the “VEGFC expression R*: Ratio to control” value [9] was 1.637 times and the “VEGFC expression log2 [ratio]” value [9] was 0.711. For the same molecule, the “GDF9 gene expression, R* ratio to control” value [10] was 0.357 times, the GDF9 gene expression, log2 [ratio] [10] was -1.49 and the “TP53INP1 expression R*: Ratio to control” value [11] was 0.395 times. For the same molecule, the “TP53INP1 expression log2 [ratio]” value [11] was −1.339, the “ZFPM2 expression R*: Ratio to control” value [12] was 1.678 times and the “ZFPM2 expression log2 [ratio]” value [12] was 0.746. The “TNFRSF10B expression R*: Ratio to control” value [13] was 0.636 times, the “TNFRSF10B expression log2 [ratio]” value [13] was −0.653 and the “SOX7 expression R: Ratio to control” value [14] was 0.362 times. For the same molecule, the “SOX7 expression log2 [ratio]” value [14] was −1.464, the “PPAP2B expression R*: Ratio to control” value [15] was 1.919 times and the “PPAP2B expression log2 [ratio]” value [15] was 0.941. The “CASP1 expression R*: Ratio to control” value [16] was 0.641 times, the “CASP1 expression log2 [ratio]” value [16] was −0.642 and the “AEN expression R*: Ratio to control” value [17] was 0.420 times. The “AEN expression log2 [ratio]” value [17] was −1.253, the “CKLF expression R*: Ratio to control” value [18] was 1.601 times and the “CKLF expression log2 [ratio]” value [18] was 0.679. The “NQO1 gene expression, R* ratio to control” value [19] was 1.480 times, the “NQO1 gene expression, log2 [ratio]” value [19] was 0.566 and the “SEPT4 expression R*: Ratio to control” value [20] was 0.503 times. The “SEPT4 expression log2 [ratio]” value [20] was −0.990, the “PMAIP1 expression R: Ratio to control” value [21] was 0.344 times and the “PMAIP1 expression log2 [ratio]” value [21] was −1.540. For the same molecule, the “BAX expression R*: Ratio to control” value [22] was 0.453 times, the “BAX expression log2 [ratio]” value [22] was −1.143 and the “CYP1B1 gene expression, R* ratio to control” value [23] was 1.584 times. For the same molecule, the “CYP1B1 gene expression, log2 [ratio]” value [23] was 0.663, the “COL8A1 expression R*: Ratio to control” value [24] was 1.643 times and the “COL8A1 expression log2 [ratio]” value [24] was 0.716. The “TGFBR2 expression R*: Ratio to control” value [25] was 1.634 times, the “TGFBR2 expression log2 [ratio]” value [25] was 0.708 and the “IL4 gene expression, R* ratio to control” value [26] was 0.420 times. For the same molecule, the “IL4 gene expression, log2 [ratio]” value [26] was −1.251, the “CXCL14 gene expression, R* ratio to control” value [27] was 0.364 times and the “CXCL14 gene expression, log2 [ratio]” value [27] was −1.456. The “PERP expression R: Ratio to control” value [28] was 0.521 times, the “PERP expression log2 [ratio]” value [28] was −0.941 and the “1FI16 expression R*: Ratio to control” value [29] was 0.585 times. For the same molecule, the “1FI16 expression log2 [ratio]” value [29] was −0.773, the “AGGF1 expression R*: Ratio to control” value [30] was 1.523 times and the “AGGF1 expression log2 [ratio]” value [30] was 0.607. For the same molecule, the “SST expression R: Ratio to control” value [31] was 0.666 times, the “SST expression log2 [ratio]” value [31] was −0.587 and the “FAIM expression R*: Ratio to control” value [32] was 1.670 times. For the same molecule, the “FAIM expression log2 [ratio]” value [32] was 0.740, the “TNFRSF10A expression R*: Ratio to control” value [33] was 0.402 times and the “TNFRSF10A expression log2 [ratio]” value [33] was −1.314. The “A1FM3 expression R*: Ratio to control” value [34] was 0.580 times, the “A1FM3 expression log2 [ratio]” value [34] was −0.761 and the “PXDNL gene expression, R* ratio to control” value [35] was 2.426 times. The “PXDNL gene expression, log2 [ratio]” value [35] was 1.278, the “AREG gene expression, R* ratio to control” value [36] was 0.128 times and the “AREG gene expression, log2 [ratio]” value [36] was −2.969. For the same molecule, the “IKBIP expression R*: Ratio to control” value [37] was 0.468 times and the “IKBIP expression log2 [ratio]” value [37] was −1.095.
